# Results from article PMC3616494 (Journal of medicinal chemistry, 2008).
# Entries after “also recorded” stand apart in the source; their conditions may differ.
# Legend:
# [1] = molecular target: T1, rat A3 AR (Rattus norvegicus, UniProt P28647); test: Radioligand binding at rat A3 AR; settings: for Binding affinity at the rat A3 AR (in words): CHO cells
# T1 sequence (P28647 1-320): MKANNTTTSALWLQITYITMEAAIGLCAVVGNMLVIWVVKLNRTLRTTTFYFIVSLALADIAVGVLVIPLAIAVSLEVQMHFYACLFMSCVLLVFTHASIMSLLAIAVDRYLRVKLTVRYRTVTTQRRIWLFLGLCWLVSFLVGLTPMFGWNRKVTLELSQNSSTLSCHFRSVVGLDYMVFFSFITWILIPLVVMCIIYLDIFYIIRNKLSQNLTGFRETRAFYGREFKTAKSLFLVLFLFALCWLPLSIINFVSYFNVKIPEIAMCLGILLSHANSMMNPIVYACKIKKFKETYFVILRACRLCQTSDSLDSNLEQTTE
# [2] = tested on: human A2B AR; settings: cited from earlier work
# [3] = molecular target: T2, human A3 AR (Homo sapiens, UniProt P0DMS8); test: Radioligand binding at human A3 AR; settings: stated for all subtypes of ARs (hA1, hA2A, hA3)
# T2 sequence (P0DMS8 1-318): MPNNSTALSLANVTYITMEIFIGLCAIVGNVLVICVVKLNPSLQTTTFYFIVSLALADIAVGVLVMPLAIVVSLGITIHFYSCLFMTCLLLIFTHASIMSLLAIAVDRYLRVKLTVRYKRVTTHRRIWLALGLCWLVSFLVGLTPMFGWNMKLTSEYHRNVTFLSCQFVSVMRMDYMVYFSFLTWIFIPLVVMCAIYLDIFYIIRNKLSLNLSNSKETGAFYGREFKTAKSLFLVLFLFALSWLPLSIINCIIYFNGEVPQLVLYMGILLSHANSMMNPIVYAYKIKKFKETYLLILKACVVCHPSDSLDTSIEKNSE
structure (smiles),measurement,setting,value
CNc1nc(Cl)nc2c1ncn2[C@@H]1SC[C@@H](O)[C@H]1O [Compound 6a],Ki,[1],658 ± 160 nM
same,Binding affinity at the rat A3 AR (in words),[1],lost their binding affinities
O[C@@H]1[C@H](O)CS[C@H]1n1cnc2c(NCc3cccc(F)c3)nc(Cl)nc21 [Compound 6b],Ki,[1],36.2 ± 10.7 nM
O[C@@H]1[C@H](O)CS[C@H]1n1cnc2c(NCc3cccc(Br)c3)nc(Cl)nc21 [Compound 6d],Ki,[1],6.1 ± 1.8 nM
O[C@@H]1[C@H](O)CS[C@H]1n1cnc2c(NCc3cccc(I)c3)nc(Cl)nc21 [Compound 6e],Activity as agonist or antagonist in a cyclic AMP functional assay at the hA2B AR,[2],inactive as agonist or antagonist
"CNc1ncnc2c1ncn2[C@@H]1SC[C@@H](O)[C@H]1O [Compound 7a, (2R,3R,4S)-Tetrahydro-2-(6-(methylamino)-9H-purin-9-yl)thiophene-3,4-diol]",Binding affinity at the rat A3 AR (in words),[1],totally devoid of A3AR binding affinity; also recorded: lost their binding affinities
O[C@H]1[C@@H](O)CS[C@@H]1n1cnc2c(NCc3cccc(Br)c3)nc(Cl)nc21 [Compound 7f],Binding affinity (in words),[3],totally devoid of binding affinities
O[C@H]1[C@@H](O)CS[C@@H]1n1cnc2c(NCc3cccc(I)c3)nc(Cl)nc21 [Compound 7g],Binding affinity (in words),[3],totally devoid of binding affinities
